In publication PMC10349072, “Distinct evolution of type I glutamine synthetase in Plasmodium and its species-specific requirement” (Nature Communications, 2023):

Experiments:
[1] = molecular target: T1, E. coli glutamine synthetase (rE. coli GS) (Escherichia coli, UniProt P0A9C5); experiment: feedback inhibition enzyme assay at […]; format: biochemical
T1 construct: gene glnA; recombinant with 6xHis tag
T1 sequence (P0A9C5 2-469): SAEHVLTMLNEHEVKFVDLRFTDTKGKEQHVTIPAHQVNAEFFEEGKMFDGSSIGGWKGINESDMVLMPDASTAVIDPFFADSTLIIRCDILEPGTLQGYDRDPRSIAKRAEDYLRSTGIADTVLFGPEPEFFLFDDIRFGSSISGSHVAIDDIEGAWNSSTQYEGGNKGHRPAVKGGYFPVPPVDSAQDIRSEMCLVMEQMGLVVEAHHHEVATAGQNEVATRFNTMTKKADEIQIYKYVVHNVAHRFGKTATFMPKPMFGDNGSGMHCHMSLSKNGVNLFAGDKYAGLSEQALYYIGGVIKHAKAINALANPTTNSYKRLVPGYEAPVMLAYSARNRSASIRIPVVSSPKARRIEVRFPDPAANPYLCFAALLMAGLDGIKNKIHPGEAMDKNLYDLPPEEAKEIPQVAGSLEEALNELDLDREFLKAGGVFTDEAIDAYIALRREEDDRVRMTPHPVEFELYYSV

[2] = molecular target: T2, Plasmodium berghei glutamine synthetase (rPbGS) (Plasmodium berghei, UniProt A0A509ANX1); experiment: GS enzyme assay (Pi release/HPLC) with pre-incubation with ATP and MgCl2; kinetic Ki; format: biochemical
T2 construct: gene PBANKA_0823500; recombinant with N-terminal 6xHis tag, expressed in E. coli
T2 sequence (A0A509ANX1 1-553): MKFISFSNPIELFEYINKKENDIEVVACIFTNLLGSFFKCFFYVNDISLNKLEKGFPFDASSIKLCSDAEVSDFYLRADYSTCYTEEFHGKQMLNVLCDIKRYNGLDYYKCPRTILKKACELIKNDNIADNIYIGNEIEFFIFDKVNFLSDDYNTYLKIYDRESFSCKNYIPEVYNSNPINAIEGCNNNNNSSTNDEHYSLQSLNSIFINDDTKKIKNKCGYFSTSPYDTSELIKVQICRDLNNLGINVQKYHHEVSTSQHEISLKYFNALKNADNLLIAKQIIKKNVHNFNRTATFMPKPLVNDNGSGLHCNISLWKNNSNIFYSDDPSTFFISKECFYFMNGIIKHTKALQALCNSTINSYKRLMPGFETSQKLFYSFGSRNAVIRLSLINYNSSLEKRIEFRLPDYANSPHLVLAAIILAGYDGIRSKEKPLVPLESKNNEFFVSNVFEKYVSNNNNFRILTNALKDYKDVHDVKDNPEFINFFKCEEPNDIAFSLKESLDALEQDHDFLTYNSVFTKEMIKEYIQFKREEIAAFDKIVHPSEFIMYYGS

[3] = molecular target: T3, Plasmodium falciparum glutamine synthetase lacking first peptide insert (ΔI1rPfGS) (Plasmodium falciparum, UniProt C0H551, DEL174-196); format: biochemical
T3 construct: gene PF3D7_0922600; recombinant, 6xHis tag, first peptide insert (amino acids 174–196) deleted

[4] = molecular target: T4, Plasmodium falciparum glutamine synthetase (rPfGS) (Plasmodium falciparum, UniProt C0H551); experiment: biochemical
T4 construct: gene PF3D7_0922600
T4 sequence (C0H551 1-543): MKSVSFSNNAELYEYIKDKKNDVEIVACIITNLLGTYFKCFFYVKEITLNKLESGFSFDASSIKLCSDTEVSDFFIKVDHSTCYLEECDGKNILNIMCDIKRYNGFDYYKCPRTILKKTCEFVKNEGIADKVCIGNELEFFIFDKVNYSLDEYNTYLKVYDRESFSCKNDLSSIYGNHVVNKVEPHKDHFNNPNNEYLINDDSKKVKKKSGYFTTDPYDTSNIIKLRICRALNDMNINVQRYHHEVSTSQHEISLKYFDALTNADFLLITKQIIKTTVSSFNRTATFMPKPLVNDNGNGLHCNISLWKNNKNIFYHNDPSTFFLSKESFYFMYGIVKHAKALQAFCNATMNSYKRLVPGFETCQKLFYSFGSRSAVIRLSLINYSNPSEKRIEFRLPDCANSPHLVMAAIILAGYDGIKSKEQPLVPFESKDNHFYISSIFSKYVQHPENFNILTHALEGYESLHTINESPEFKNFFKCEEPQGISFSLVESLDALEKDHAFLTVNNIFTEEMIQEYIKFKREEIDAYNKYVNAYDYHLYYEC

Structure (SMILES)	% [1]	Ki [2] [µM]	GS enzyme assay, percent activity vs control [3]	Ki [4] [µM]
Nc1ncnc2c1ncn2[C@@H]1O[C@H](COP(=O)(O)O)[C@@H](O)[C@H]1O [AMP, adenosine monophosphate]	30–40% inhibition at 5 mM			
CS(=N)(=O)CC[C@H](N)C(=O)O (stereo partly drawn) [MSO, L-Methionine sulfoximine]		5.44 ± 1.07	ΔI1rPfGS behaved like rPfGS in terms of specific activity (Fig. 3b), inhibition by MSO and PPT (Fig. 3c)	
CP(=O)(O)CC[C@H](N)C(=O)O [PPT, Phosphinothricin]		8.07 ± 3.31	ΔI1rPfGS behaved like rPfGS in terms of specific activity (Fig. 3b), inhibition by MSO and PPT (Fig. 3c)	2.31 ± 1.1
C[C@H](N)C(=O)O [alanine]	30–40% inhibition at 5 mM			
